# Reference: PubChem BioAssay AID256 (DTP/NCI, 2004)
# Values joined by “and” are separate entries in the source; they are usually repeats but may differ in a detail not shown here. Identical values can stand only once. Inconclusive results and toxic doses are left out.
# Tested on: CD2F1 mice, L1210 leukemia ip, survival T/C
# Experiment: NCI In Vivo Anticancer Drug Screen. Data for tumor model L1210 Leukemia (intraperitoneal) in CD2F1 (CDF1) mice
# Settings: higher = longer survival
# How it was run: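 Activity against a transplanted murine tumor was judged by comparing the compound group with a vehicle group. The outcome in the treated animals was divided by that in the controls.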
structure (smiles),measurement,setting,value
O=P1(N(CCCl)CCCl)NCCCO1 (stereo not drawn),T/C,"endpoint: mean survival time, dose: 10.0 mg/kg/injection, schedule: Q01DX009 (ip), vehicle: saline",124 % of control
same,T/C,"endpoint: mean survival time, dose: 12.5 mg/kg/injection, schedule: Q01DX005 (ip), vehicle: water",120 % of control and 122 % of control
same,T/C,"endpoint: mean survival time, dose: 12.5 mg/kg/injection, schedule: Q01DX009 (ip), vehicle: saline",114 % of control and 123 % of control
same,T/C,"endpoint: mean survival time, dose: 20.0 mg/kg/injection, schedule: Q01DX009 (ip), vehicle: saline",122 % of control
same,T/C,"endpoint: mean survival time, dose: 20.0 mg/kg/injection, schedule: Q03DX003 (ip), vehicle: saline",124 % of control
same,T/C,"endpoint: mean survival time, dose: 20.0 mg/kg/injection, schedule: Q04DX003 (ip), vehicle: saline",114 % of control and 115 % of control
same,T/C,"endpoint: mean survival time, dose: 25.0 mg/kg/injection, schedule: Q01DX001 (ip), vehicle: DMSO",115 % of control
same,T/C,"endpoint: mean survival time, dose: 30.0 mg/kg/injection, schedule: Q04DX003 (ip), vehicle: water",113 % of control
same,T/C,"endpoint: mean survival time, dose: 31.3 mg/kg/injection, schedule: Q01DX001 (ip), vehicle: DMSO",114 % of control
same,T/C,"endpoint: mean survival time, dose: 31.3 mg/kg/injection, schedule: Q01DX001 (ip), vehicle: saline",113 % of control
same,T/C,"endpoint: mean survival time, dose: 38.9 mg/kg/injection, schedule: Q01DX001 (ip), vehicle: water",119 % of control
same,T/C,"endpoint: mean survival time, dose: 40.0 mg/kg/injection, schedule: Q01DX007 (ip), vehicle: saline",163 % of control
same,T/C,"endpoint: mean survival time, dose: 40.0 mg/kg/injection, schedule: Q01DX009 (ip), vehicle: saline",170 % of control
same,T/C,"endpoint: mean survival time, dose: 40.0 mg/kg/injection, schedule: Q03DX003 (ip), vehicle: saline",151 % of control
same,T/C,"endpoint: mean survival time, dose: 40.0 mg/kg/injection, schedule: Q04DX003 (ip), vehicle: saline",155 % of control
same,T/C,"endpoint: mean survival time, dose: 50.0 mg/kg/injection, schedule: Q01DX001 (ip), vehicle: DMSO",117 % of control
same,T/C,"endpoint: mean survival time, dose: 50.0 mg/kg/injection, schedule: Q01DX001 (ip), vehicle: Klucel (hydroxypropylcellulose) (HPC)",113 % of control
same,T/C,"endpoint: mean survival time, dose: 50.0 mg/kg/injection, schedule: Q01DX001 (ip), vehicle: other",115 % of control
same,T/C,"endpoint: mean survival time, dose: 50.0 mg/kg/injection, schedule: Q01DX009 (ip), vehicle: saline",165 % of control and 173 % of control
same,T/C,"endpoint: mean survival time, dose: 62.5 mg/kg/injection, schedule: Q01DX001 (ip), vehicle: Klucel (hydroxypropylcellulose) (HPC)",122 % of control
same,T/C,"endpoint: mean survival time, dose: 62.5 mg/kg/injection, schedule: Q01DX001 (ip), vehicle: saline with Tween-80",124 % of control
same,T/C,"endpoint: mean survival time, dose: 62.5 mg/kg/injection, schedule: Q01DX001 (ip), vehicle: water",121 % of control and 122 % of control
same,T/C,"endpoint: mean survival time, dose: 80.0 mg/kg/injection, schedule: Q03DX003 (ip), vehicle: saline",192 % of control
same,T/C,"endpoint: mean survival time, dose: 80.0 mg/kg/injection, schedule: Q04DX003 (ip), vehicle: saline",187 % of control
same,T/C,"endpoint: mean survival time, dose: 100.0 mg/kg/injection, schedule: Q01DX001 (ip), vehicle: DMSO",158 % of control
same,T/C,"endpoint: mean survival time, dose: 108.0 mg/kg/injection, schedule: Q01DX001 (ip), vehicle: saline",164 % of control
same,T/C,"endpoint: mean survival time, dose: 108.0 mg/kg/injection, schedule: Q01DX001 (ip), vehicle: water",169 % of control
same,T/C,"endpoint: mean survival time, dose: 125.0 mg/kg/injection, schedule: Q01DX001 (ip), vehicle: Klucel (hydroxypropylcellulose) (HPC)",170 % of control
same,T/C,"endpoint: mean survival time, dose: 125.0 mg/kg/injection, schedule: Q01DX001 (ip), vehicle: saline with Tween-80",150 % of control and 159 % of control
same,T/C,"endpoint: mean survival time, dose: 125.0 mg/kg/injection, schedule: Q01DX001 (ip), vehicle: water",156 % of control and 173 % of control
same,T/C,"endpoint: mean survival time, dose: 133.0 mg/kg/injection, schedule: Q01DX001 (ip), vehicle: saline",167 % of control
same,T/C,"endpoint: mean survival time, dose: 135.0 mg/kg/injection, schedule: Q01DX001 (ip), vehicle: saline",158 % of control and 171 % of control
same,T/C,"endpoint: mean survival time, dose: 150.0 mg/kg/injection, schedule: Q01DX001 (ip), vehicle: water",172 % of control
same,T/C,"endpoint: mean survival time, dose: 160.0 mg/kg/injection, schedule: Q01DX009 (ip), vehicle: saline",124 % of control
same,T/C,"endpoint: mean survival time, dose: 180.0 mg/kg/injection, schedule: Q01DX001 (ip), vehicle: water",176 % of control
same,T/C,"endpoint: mean survival time, dose: 196.0 mg/kg/injection, schedule: Q01DX001 (ip), vehicle: saline",201 % of control
same,T/C,"endpoint: mean survival time, dose: 200.0 mg/kg/injection, schedule: Q01DX001 (ip), vehicle: Klucel (hydroxypropylcellulose) (HPC)",164 % of control and 198 % of control
same,T/C,"endpoint: mean survival time, dose: 200.0 mg/kg/injection, schedule: Q01DX001 (ip), vehicle: other",189 % of control
same,T/C,"endpoint: mean survival time, dose: 200.0 mg/kg/injection, schedule: Q01DX005 (ip), vehicle: water",191 % of control
same,T/C,"endpoint: mean survival time, dose: 200.0 mg/kg/injection, schedule: Q04DX003 (ip), vehicle: saline",205 % of control
same,T/C,"endpoint: mean survival time, dose: 250.0 mg/kg/injection, schedule: Q01DX001 (ip), vehicle: saline with Tween-80",190 % of control
same,T/C,"endpoint: mean survival time, dose: 250.0 mg/kg/injection, schedule: Q01DX001 (ip), vehicle: water",188 % of control and 261 % of control and 280 % of control
same,T/C,"endpoint: mean survival time, dose: 320.0 mg/kg/injection, schedule: Q04DX003 (ip), vehicle: saline",117 % of control
same,T/C,"endpoint: mean survival time, dose: 400.0 mg/kg/injection, schedule: Q01DX001 (ip), vehicle: Klucel (hydroxypropylcellulose) (HPC)",187 % of control
same,T/C,"endpoint: mean survival time, dose: 400.0 mg/kg/injection, schedule: Q01DX001 (ip), vehicle: other",183 % of control
same,T/C,"endpoint: mean survival time, dose: 450.0 mg/kg/injection, schedule: Q01DX001 (ip), vehicle: saline",209 % of control
same,T/C,"endpoint: mean survival time, dose: 500.0 mg/kg/injection, schedule: Q01DX001 (ip), vehicle: Klucel (hydroxypropylcellulose) (HPC)",173 % of control
same,T/C,"endpoint: mean survival time, dose: 500.0 mg/kg/injection, schedule: Q01DX001 (ip), vehicle: saline with Tween-80",197 % of control
same,T/C,"endpoint: mean survival time, dose: 500.0 mg/kg/injection, schedule: Q01DX001 (ip), vehicle: water",253 % of control and 223 % of control and 271 % of control
same,T/C,"endpoint: median survival time, dose: 12.5 mg/kg/injection, schedule: Q01DX009 (ip), vehicle: saline",120 % of control and 122 % of control
same,T/C,"endpoint: median survival time, dose: 20.0 mg/kg/injection, schedule: Q01DX009 (ip), vehicle: water",121 % of control
same,T/C,"endpoint: median survival time, dose: 25.0 mg/kg/injection, schedule: Q01DX001 (ip), vehicle: saline",117 % of control and 118 % of control
same,T/C,"endpoint: median survival time, dose: 25.0 mg/kg/injection, schedule: Q01DX001 (ip), vehicle: water",113 % of control
same,T/C,"endpoint: median survival time, dose: 31.25 mg/kg/injection, schedule: Q01DX001 (ip), vehicle: water",116 % of control and 119 % of control (2×)
same,T/C,"endpoint: median survival time, dose: 40.0 mg/kg/injection, schedule: Q01DX009 (ip), vehicle: water",153 % of control
same,T/C,"endpoint: median survival time, dose: 50.0 mg/kg/injection, schedule: Q01DX005 (ip), vehicle: saline",169 % of control
same,T/C,"endpoint: median survival time, dose: 50.0 mg/kg/injection, schedule: Q01DX009 (ip), vehicle: saline",178 % of control and 182 % of control
same,T/C,"endpoint: median survival time, dose: 50.0 mg/kg/injection, schedule: Q03DX003 (ip), vehicle: saline",162 % of control
same,T/C,"endpoint: median survival time, dose: 62.5 mg/kg/injection, schedule: Q01DX001 (ip), vehicle: water",151 % of control
same,T/C,"endpoint: median survival time, dose: 66.0 mg/kg/injection, schedule: Q07DX003 (sc), vehicle: saline",155 % of control and 162 % of control
same,T/C,"endpoint: median survival time, dose: 100.0 mg/kg/injection, schedule: Q01DX001 (ip), vehicle: water",155 % of control and 160 % of control
same,T/C,"endpoint: median survival time, dose: 100.0 mg/kg/injection, schedule: Q01DX009 (ip), vehicle: saline",114 % of control
same,T/C,"endpoint: median survival time, dose: 100.0 mg/kg/injection, schedule: Q03DX003 (ip), vehicle: saline",202 % of control
same,T/C,"endpoint: median survival time, dose: 108.0 mg/kg/injection, schedule: Q01DX001 (iv), vehicle: saline",171 % of control
same,T/C,"endpoint: median survival time, dose: 125.0 mg/kg/injection, schedule: Q01DX001 (ip), vehicle: water",183 % of control
same,T/C,"endpoint: median survival time, dose: 150.0 mg/kg/injection, schedule: Q01DX001 (ip), vehicle: saline",169 % of control
same,T/C,"endpoint: median survival time, dose: 250.0 mg/kg/injection, schedule: Q01DX001 (ip), vehicle: water",173 % of control
same,T/C,"endpoint: median survival time, dose: 330.0 mg/kg/injection, schedule: Q07DX003 (ip), vehicle: saline",210 % of control
same,T/C,"endpoint: median survival time, dose: 450.0 mg/kg/injection, schedule: Q01DX001 (ip), vehicle: saline",154 % of control
CSc1nn(C2OC(COC(=O)c3ccccc3)C(OC(=O)c3ccccc3)C2OC(=O)c2ccccc2)c(=O)[nH]c1=O (stereo not drawn),T/C,"endpoint: mean survival time, dose: 12.5 mg/kg/injection, schedule: Q01DX005 (ip), vehicle: distilled water + Tween-80",98 % of control
same,T/C,"endpoint: mean survival time, dose: 25.0 mg/kg/injection, schedule: Q01DX005 (ip), vehicle: distilled water + Tween-80",93 % of control
same,T/C,"endpoint: mean survival time, dose: 50.0 mg/kg/injection, schedule: Q01DX005 (ip), vehicle: distilled water + Tween-80",97 % of control
same,T/C,"endpoint: mean survival time, dose: 100.0 mg/kg/injection, schedule: Q01DX005 (ip), vehicle: distilled water + Tween-80",93 % of control
same,T/C,"endpoint: mean survival time, dose: 200.0 mg/kg/injection, schedule: Q01DX005 (ip), vehicle: distilled water + Tween-80",95 % of control
Cc1cc(NCCCN(C)C)c2ccc3c(ccc4c(NCCCN(C)C)cc(C)nc43)c2n1,T/C,"endpoint: median survival time, dose: 0.38 mg/kg/injection, schedule: Q01DX009 (ip), vehicle: saline",95 % of control
same,T/C,"endpoint: median survival time, dose: 0.75 mg/kg/injection, schedule: Q01DX009 (ip), vehicle: saline",93 % of control
same,T/C,"endpoint: median survival time, dose: 1.5 mg/kg/injection, schedule: Q01DX009 (ip), vehicle: saline",113 % of control
same,T/C,"endpoint: median survival time, dose: 3.0 mg/kg/injection, schedule: Q01DX009 (ip), vehicle: saline",110 % of control
